Experimental data as given in paper PMC6017062, “Probing the Inhibitor versus Chaperone Properties of sp^2-Iminosugars towards Human β-Glucocerebrosidase: A Picomolar Chaperone for Gaucher Disease” (Molecules : A Journal of Synthetic Chemistry and Natural …, 2018).

Experiments:
[1] = target: T1, α-glucosidase maltase (yeast maltase; α-Glcase1) (Saccharomyces cerevisiae, UniProt P53341); assay: Commercial glycosidase inhibition: maltase (yeast maltase; α-Glcase1); type: biochemical; conditions: mean ± SD, three determinations; competitive; n.i. = no inhibition detected at 1 mM
T1 construct: purchased
T1 sequence (P53341 whole entry): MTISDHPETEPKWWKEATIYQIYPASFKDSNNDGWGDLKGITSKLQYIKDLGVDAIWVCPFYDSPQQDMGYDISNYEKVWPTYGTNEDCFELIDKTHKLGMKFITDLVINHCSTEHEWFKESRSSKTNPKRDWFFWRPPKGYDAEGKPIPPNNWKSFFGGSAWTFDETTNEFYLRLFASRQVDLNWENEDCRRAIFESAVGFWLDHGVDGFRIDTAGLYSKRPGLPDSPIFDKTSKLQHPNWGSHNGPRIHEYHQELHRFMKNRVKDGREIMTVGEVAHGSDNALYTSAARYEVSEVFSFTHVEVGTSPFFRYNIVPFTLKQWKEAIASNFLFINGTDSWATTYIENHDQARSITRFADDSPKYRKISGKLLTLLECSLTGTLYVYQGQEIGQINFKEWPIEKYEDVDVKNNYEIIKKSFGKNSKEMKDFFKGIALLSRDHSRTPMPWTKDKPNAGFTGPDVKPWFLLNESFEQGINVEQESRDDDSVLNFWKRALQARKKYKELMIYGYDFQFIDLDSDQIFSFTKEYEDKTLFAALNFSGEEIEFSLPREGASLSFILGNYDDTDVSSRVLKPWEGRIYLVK
Excerpt: (§1) We first evaluated the inhibitory properties of the new nonreducing mono- and bicyclic sp^2-iminosugars 4–15 against a panel of commercial glycosidases that included the α-glucosidases maltase (yeast maltase; α-Glcase1) and isomaltase (α-Glcase2) from Saccharomyces cerevisiae and amyloglucosidase (α-Glcase3) from Aspergillus niger, the β-glucosidases from almonds (β-Glcase1) and bovine liver (β-Glcase2), the α-galactosidase from green coffee beans (α-Galase), the β-galactosidase from Escherichia coli (β-Galase), and the α-mannosidase from Jack bean (α-Manase).
(§2) Inhibition constant (Ki) values were determined by spectrophotometrically measuring the residual hydrolytic activities of the glycosidases against the respective o- (for β-galactosidase from E. coli) or p-nitrophenyl α- or β-D-glycopyranoside (for other glycosidases) in the presence of the iminosugars. Each assay was performed in phosphate buffer or phosphate-citrate buffer (for α- or β-mannosidase and amyloglucosidase) at the optimal pH for the enzymes. The reactions were initiated by addition of the enzyme to a solution of the substrate in the absence or presence of various inhibitor concentrations. The mixture was incubated for 10–30 min at 37 °C or 55 °C (for amyloglucosidase) and the reaction was quenched by addition of 1 M Na2CO3. Reaction times were appropriate to obtain 10–20% conversion of the substrate in order to achieve linear rates. The absorbance of the resulting mixture was determined at 405 nm. Approximate value of Ki was determined from the slope of Dixon plots using a fixed concentration of substrate (around the Km value for the different glycosidases) and various concentrations of inhibitor. Full Ki determinations and enzyme inhibition mode were determined from the slope of Lineweaver–Burk plots and double reciprocal analysis.

[2] = target: T2, amyloglucosidase (α-Glcase3) (Aspergillus niger, UniProt P69328); assay: Commercial glycosidase inhibition: amyloglucosidase (α-Glcase3); type: biochemical; conditions: mean ± SD, three determinations; competitive; n.i. = no inhibition detected at 1 mM
T2 construct: purchased
T2 sequence (P69328 25-640): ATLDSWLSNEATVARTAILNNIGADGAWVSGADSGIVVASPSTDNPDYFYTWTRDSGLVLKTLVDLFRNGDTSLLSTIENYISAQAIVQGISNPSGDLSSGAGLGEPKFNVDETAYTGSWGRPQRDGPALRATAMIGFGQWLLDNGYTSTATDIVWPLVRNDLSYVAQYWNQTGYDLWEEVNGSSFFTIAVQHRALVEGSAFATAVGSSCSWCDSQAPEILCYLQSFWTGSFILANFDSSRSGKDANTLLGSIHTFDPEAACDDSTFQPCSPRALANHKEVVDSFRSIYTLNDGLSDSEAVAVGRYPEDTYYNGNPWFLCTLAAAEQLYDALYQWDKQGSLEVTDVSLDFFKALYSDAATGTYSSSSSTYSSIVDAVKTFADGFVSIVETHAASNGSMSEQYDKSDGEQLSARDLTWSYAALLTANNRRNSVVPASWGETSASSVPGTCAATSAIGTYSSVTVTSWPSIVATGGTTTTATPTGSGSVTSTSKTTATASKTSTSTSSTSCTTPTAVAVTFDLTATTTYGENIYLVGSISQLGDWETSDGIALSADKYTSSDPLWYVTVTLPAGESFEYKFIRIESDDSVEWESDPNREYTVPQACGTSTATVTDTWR
Excerpt: as §1, §2

[3] = target: T3, α-mannosidase from Jack bean (α-Manase) (Canavalia ensiformis, UniProt C0HJB3); assay: Commercial glycosidase inhibition: α-mannosidase from Jack bean (α-Manase); type: biochemical; conditions: mean ± SD, three determinations; competitive; n.i. = no inhibition detected at 1 mM
T3 construct: purchased
T3 sequence (C0HJB3 1-981): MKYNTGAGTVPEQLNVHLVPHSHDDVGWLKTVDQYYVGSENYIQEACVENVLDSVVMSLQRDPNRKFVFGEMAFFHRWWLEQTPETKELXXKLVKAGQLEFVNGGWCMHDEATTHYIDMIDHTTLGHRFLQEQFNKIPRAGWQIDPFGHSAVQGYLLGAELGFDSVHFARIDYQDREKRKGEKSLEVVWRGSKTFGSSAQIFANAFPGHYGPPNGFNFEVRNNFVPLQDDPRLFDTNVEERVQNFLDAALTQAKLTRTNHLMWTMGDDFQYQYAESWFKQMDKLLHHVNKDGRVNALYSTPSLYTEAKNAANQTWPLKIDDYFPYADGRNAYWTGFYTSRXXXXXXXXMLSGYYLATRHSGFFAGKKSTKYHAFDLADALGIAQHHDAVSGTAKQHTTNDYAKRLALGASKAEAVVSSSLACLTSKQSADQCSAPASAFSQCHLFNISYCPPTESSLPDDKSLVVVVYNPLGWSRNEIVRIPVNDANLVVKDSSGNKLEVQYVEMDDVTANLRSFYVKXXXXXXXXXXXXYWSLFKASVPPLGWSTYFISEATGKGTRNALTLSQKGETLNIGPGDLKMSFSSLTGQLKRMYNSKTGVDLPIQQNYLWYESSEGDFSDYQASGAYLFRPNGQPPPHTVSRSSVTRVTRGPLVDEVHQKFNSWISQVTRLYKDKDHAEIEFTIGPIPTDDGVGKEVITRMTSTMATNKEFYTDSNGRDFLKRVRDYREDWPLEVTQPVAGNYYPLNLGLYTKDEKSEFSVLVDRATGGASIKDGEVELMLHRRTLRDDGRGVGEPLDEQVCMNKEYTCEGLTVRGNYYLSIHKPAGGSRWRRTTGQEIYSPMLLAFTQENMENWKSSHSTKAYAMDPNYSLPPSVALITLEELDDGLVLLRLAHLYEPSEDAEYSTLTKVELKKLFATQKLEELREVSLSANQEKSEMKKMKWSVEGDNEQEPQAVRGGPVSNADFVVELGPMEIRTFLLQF
Excerpt: as §1, §2

[4] = target: β-glucosidase from almonds (β-Glcase1); assay: Commercial glycosidase inhibition: β-glucosidase from almonds (β-Glcase1); type: biochemical; conditions: mean ± SD, three determinations; competitive; n.i. = no inhibition detected at 1 mM
Excerpt: as §1, §2

[5] = target: T4, β-galactosidase (β-Galase) (Escherichia coli, UniProt P00722); assay: Commercial glycosidase inhibition: β-galactosidase from E. coli (β-Galase); type: biochemical; conditions: mean ± SD, three determinations; competitive; n.i. = no inhibition detected at 1 mM
T4 construct: purchased
T4 sequence (P00722 2-1024 limits assumed): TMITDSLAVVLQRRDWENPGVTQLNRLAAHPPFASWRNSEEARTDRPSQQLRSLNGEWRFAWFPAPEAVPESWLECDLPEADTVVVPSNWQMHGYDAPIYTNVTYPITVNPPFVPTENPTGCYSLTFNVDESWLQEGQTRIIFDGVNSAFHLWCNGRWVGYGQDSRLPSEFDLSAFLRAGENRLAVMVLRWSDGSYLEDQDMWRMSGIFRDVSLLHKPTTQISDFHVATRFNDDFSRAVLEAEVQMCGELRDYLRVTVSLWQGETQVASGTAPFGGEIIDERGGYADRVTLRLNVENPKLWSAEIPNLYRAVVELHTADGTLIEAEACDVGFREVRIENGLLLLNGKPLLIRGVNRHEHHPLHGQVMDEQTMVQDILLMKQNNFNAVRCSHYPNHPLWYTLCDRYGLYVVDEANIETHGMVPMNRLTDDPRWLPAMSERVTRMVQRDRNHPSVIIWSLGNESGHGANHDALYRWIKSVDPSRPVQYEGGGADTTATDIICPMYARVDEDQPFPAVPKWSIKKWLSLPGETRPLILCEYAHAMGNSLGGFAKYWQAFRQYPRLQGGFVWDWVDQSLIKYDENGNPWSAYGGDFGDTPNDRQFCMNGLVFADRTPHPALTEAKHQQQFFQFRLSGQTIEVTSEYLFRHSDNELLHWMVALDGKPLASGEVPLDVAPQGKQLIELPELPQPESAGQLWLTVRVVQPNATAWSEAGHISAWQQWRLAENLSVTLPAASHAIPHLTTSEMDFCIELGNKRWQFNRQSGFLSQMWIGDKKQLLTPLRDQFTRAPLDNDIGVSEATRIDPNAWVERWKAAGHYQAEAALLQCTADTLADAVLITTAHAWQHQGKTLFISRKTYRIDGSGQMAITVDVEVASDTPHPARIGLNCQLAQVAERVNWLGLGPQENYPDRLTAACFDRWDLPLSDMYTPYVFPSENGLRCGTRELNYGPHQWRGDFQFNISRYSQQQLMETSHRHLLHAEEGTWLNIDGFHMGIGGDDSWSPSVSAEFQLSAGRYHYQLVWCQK
Excerpt: as §1, §2

isomaltase (α-Glcase2) = target: T5, isomaltase (α-Glcase2) (Saccharomyces cerevisiae, UniProt P53051); assay: Commercial glycosidase inhibition: isomaltase (α-Glcase2); type: biochemical; conditions: mean ± SD, three determinations; competitive; n.i. = no inhibition detected at 1 mM
T5 construct: purchased
T5 sequence (P53051 whole entry): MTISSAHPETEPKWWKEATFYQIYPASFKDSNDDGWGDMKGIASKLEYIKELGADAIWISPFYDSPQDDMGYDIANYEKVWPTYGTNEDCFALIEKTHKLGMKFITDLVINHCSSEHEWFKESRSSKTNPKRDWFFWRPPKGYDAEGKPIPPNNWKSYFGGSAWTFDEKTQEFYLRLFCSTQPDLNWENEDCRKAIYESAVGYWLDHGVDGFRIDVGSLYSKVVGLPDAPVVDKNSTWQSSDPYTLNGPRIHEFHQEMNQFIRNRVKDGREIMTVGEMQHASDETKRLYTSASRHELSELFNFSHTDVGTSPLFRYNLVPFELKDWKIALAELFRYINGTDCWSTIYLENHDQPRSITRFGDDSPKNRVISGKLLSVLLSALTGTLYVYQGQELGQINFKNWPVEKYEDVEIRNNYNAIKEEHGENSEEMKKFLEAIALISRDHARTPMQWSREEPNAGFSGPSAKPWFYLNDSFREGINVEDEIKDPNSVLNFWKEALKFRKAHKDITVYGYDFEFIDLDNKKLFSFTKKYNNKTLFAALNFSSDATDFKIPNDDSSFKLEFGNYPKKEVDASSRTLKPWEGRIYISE
Excerpt: as §1, §2

pKa determination = type: physicochemical
[6] = system: β-glucosidases (almonds/bovine enzymes); conditions: 4 compared with its DIJ epimer 7
Excerpt: as §1
Inhibition constant (Ki) values were determined by spectrophotometrically measuring the residual hydrolytic activities of the glycosidases against the respective o- (for β-galactosidase from E. coli) or p-nitrophenyl α- or β-D-glycopyranoside (for other glycosidases) in the presence of the iminosugars. […] The absorbance of the resulting mixture was determined at 405 nm. Approximate value of Ki was determined from the slope of Dixon plots using a fixed concentration of substrate (around the Km value for the different glycosidases) and various concentrations of inhibitor. Full Ki determinations and enzyme inhibition mode were determined from the slope of Lineweaver–Burk plots and double reciprocal analysis.

With `CCCCCCCCN=C1SCC2C(O)C(O)C(O)CN12` (stereo not drawn) [Compound 4, 1-Deoxy-6-thio-5-N,6-S-(N′-octyliminomethylidene)nojirimycin] the “Ki α-Glcase1” value [1] was “n.i. ^1”, the “Ki α-Glcase3” value [2] was “n.i” and the “Ki α-Manase” value [3] was “n.i”. The Ki [4] was 45 nM, the “Ki β-Galase” value [5] was “n.i” and the “Ki α-Glcase2” value (isomaltase (α-Glcase2)) was “n.i”. The pKa (pKa determination) was 8.3 and the “fold stronger inhibition potency towards the β-glucosidases” value [6] was 100 fold.
